Measurements: patent US6653320B2, “Imidazopyridine derivatives” (Yamanouchi Pharmaceutical Co. Ltd., priority 2000, dated 2003)

Columns and labels:
[1] = molecular target: T1, bovine p110α (Bos taurus, UniProt P32871); test: Inhibition of PI3K (p110α subtype); assay type: biochemical; conditions: compared with known PI3K inhibitor LY294002
T1 construct: made in house
Experimental: The resulting mixture was stirred and then centrifuged. After the organic layer was extracted twice with 150 μl of MeOH/1M HCl (1:1). The radioactivity was measured using Cerenkov light.

[2] = tested on: HCT116 cells; assay type: cell-based; conditions: HCT116 colon cancer cells, incubation over 72 hours, Alamar Blue, result in words
Experimental: HCT116 cells from a colon cancer cell line were cultured in McCoy's 5A medium (GIBCO) supplemented with 10% fetal bovine serum. HCT116 cells were inoculated on a 96 well plate (5000 cells/well) followed by overnight incubation. The test compound diluted with the medium was added to the medium in a final concentration of 0.1 to 30 μM (final DMSO concentration, 1%). After incubation for over 72 hours, Alamar Blue reagent was added to the medium. Two hours after the addition, a ratio of fluorescent intensity at an excitation wavelength of 530 nm to that at an emission wavelength of 590 nm was measured to determine the IC50.

[3] = tested on: A375 cells; test: Melanoma cell growth inhibition; assay type: cell-based; conditions: Homo sapiens, A-375, incubation over 46 hours, Alamar Blue
Experimental: A375 cells from a melanoma cell line were cultured in DMEM medium (GIBCO) supplemented with 10% fetal bovine serum. A375 cells at 10,000 cells/100 μl were added to a 96 well plate which contained 1 μl/well of the test compounds (final concentration of 0.001˜30 μM). After incubation for over 46 hours, Alamar Blue reagent was added to the medium (10 μl/well). Two hours after the addition, a ratio of fluorescent intensity at an excitation wavelength of 530 nm to that at an emission wavelength of 590 nm was measured to determine the IC50 of the test compounds in the same manner as in the above examples.

T1 sequence (P32871 whole entry): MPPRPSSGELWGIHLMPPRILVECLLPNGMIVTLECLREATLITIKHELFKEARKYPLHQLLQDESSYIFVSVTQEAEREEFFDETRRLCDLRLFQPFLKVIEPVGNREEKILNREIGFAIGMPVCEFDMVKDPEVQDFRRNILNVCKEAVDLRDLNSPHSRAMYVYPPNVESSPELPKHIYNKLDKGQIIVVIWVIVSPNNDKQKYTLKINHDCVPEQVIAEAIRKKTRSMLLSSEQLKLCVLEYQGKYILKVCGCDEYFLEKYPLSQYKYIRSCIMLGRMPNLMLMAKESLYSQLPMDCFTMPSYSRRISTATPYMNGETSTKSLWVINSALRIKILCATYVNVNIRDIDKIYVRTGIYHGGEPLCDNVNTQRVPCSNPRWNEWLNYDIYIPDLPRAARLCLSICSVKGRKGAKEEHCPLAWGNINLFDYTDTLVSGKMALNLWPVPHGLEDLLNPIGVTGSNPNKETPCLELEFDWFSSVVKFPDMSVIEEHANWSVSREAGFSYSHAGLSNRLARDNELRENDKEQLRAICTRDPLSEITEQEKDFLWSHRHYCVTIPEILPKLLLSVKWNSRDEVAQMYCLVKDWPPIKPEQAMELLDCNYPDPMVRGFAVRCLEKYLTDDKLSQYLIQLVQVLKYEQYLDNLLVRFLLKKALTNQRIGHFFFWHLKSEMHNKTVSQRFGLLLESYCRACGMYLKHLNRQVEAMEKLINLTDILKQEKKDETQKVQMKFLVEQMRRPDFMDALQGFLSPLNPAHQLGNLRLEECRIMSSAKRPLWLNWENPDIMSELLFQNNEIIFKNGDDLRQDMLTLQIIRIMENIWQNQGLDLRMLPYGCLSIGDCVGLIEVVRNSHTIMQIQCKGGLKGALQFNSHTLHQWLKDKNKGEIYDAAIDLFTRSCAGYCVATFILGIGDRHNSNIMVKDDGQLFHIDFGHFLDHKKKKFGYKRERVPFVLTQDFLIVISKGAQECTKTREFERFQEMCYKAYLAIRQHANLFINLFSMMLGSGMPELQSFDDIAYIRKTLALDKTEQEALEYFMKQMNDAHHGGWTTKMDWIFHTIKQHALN

Row | IC50 [3] [nM] | Compound | PI3K inhibition, strength relative to LY294002 [1] | cancer cell growth inhibition activity [2]
1 |  | Cc1ccc([N+](=O)[O-])cc1S(=O)(=O)n1ccc(-c2c(C)nc3ccc(Br)cn23)n1 [Compound 6, 3-(6-Bromo-2-methylimidazo[1,2-a]pyridin-3-yl)-1H-pyrazol-1-yl 2-methyl-5-nitrophenyl sulfone] | more than 10 times | good cancer cell growth inhibition activity
2 | < 1000 | Cc1ccc2ncc(C=NN(C)S(=O)(=O)c3cc([N+](=O)[O-])ccc3C)n2c1 [Compound 99, 1′,2-dimethyl-2′-[(6-methylimidazo[1,2-a]pyridin-3-yl)methylidene]-5-nitrobenzenesulfonohydrazide] |  | 
